In patent publication US7462228B2, “Water-base black ink composition and colored product” (Nippon Kayaku Kabushiki Kaisha, priority 2003, dated 2008):
Converted amounts (≈) assume the structure as drawn.

Assays:
[1] = Solubility in water of the dye compound; format: physicochemical
[2] = Maximum absorption wavelength in water (λmax); format: physicochemical

| solubility [1] [mg/mL] | maximum absorption wavelength in water (λmax) [2] [nm] | Structure (SMILES) |
| --- | --- | --- |
| ≥ 100 | 660 | Nc1c(N=Nc2ccc3cc(S(=O)(=O)O)c(N=Nc4ccccc4S(=O)(=O)O)c(O)c3c2)c(S(=O)(=O)O)cc2cc(S(=O)(=O)O)c(N=Nc3ccc4cc(S(=O)(=O)O)c(N=Nc5ccccc5S(=O)(=O)O)c(O)c4c3)c(O)c12 [No. 2-11] |
| ≥ 100 | 652 | COc1ccc(N=Nc2c(S(=O)(=O)O)cc3cc(N=Nc4c(S(=O)(=O)O)cc5cc(S(=O)(=O)O)c(N=Nc6ccc7cc(S(=O)(=O)O)c(N=Nc8ccc([N+](=O)[O-])cc8S(=O)(=O)O)c(O)c7c6)c(N)c5c4O)ccc3c2O)c(S(=O)(=O)O)c1 [No. 2-5] |
| ≥ 100 | 646 | COc1ccc(N=Nc2c(S(=O)(=O)O)cc3cc(N=Nc4c(S(=O)(=O)O)cc5cc(S(=O)(=O)O)c(N=Nc6ccc7cc(S(=O)(=O)O)c(N=Nc8cc(S(=O)(=O)O)ccc8S(=O)(=O)O)c(O)c7c6)c(N)c5c4O)ccc3c2O)c(S(=O)(=O)O)c1 [No. 2-29] |
| ≥ 100 | 650 | COc1ccc(N=Nc2c(S(=O)(=O)O)cc3cc(N=Nc4c(S(=O)(=O)O)cc5cc(S(=O)(=O)O)c(N=Nc6ccc7cc(S(=O)(=O)O)c(N=Nc8ccccc8S(=O)(=O)O)c(O)c7c6)c(N)c5c4O)ccc3c2O)c(S(=O)(=O)O)c1 [No. 2-3] |
| ≥ 100 | 657 | COc1ccc(N=Nc2c(S(=O)(=O)O)cc3cc(N=Nc4c(S(=O)(=O)O)cc5cc(S(=O)(=O)O)c(N=Nc6cc7c(O)c(N=Nc8ccc(OC)cc8S(=O)(=O)O)c(S(=O)(=O)O)cc7cc6S(=O)(=O)O)c(N)c5c4O)ccc3c2O)c(S(=O)(=O)O)c1 [No. 2-2] |
| ~100 (≈ 80.1 mM) | 647 | COc1ccc(N=Nc2c(S(=O)(=O)O)cc3cc(N=Nc4c(S(=O)(=O)O)cc5cc(S(=O)(=O)O)c(N=Nc6ccc7cc(S(=O)(=O)O)c(N=Nc8ccc(OC)cc8S(=O)(=O)O)c(O)c7c6)c(N)c5c4O)ccc3c2O)c(S(=O)(=O)O)c1 [No. 2-1] |
| ≥ 100 | 559 | COc1ccc(N=Nc2c(S(=O)(=O)O)cc3c(S(=O)(=O)O)c(N=Nc4c(S(=O)(=O)O)cc5cc(S(=O)(=O)O)c(N=Nc6ccc7c(O)c(N=Nc8ccc(OC)cc8S(=O)(=O)O)c(S(=O)(=O)O)cc7c6S(=O)(=O)O)c(O)c5c4N)ccc3c2O)c(S(=O)(=O)O)c1 [No. 2-4] |
| ~100 (≈ 77 mM) | 645 | COc1ccc(N=Nc2c(S(=O)(=O)O)cc3c(S(=O)(=O)O)c(N=Nc4c(S(=O)(=O)O)cc5cc(S(=O)(=O)O)c(N=Nc6ccc7c(O)c(N=Nc8ccccc8S(=O)(=O)O)c(S(=O)(=O)O)cc7c6)c(O)c5c4N)ccc3c2O)c(S(=O)(=O)O)c1 [No. 2-28] |
